Read-outs that look alike come from different tables or passages of the source.
Legend:
[1] = tested on: serum antibodies of test subjects (anti-human IgG detection); assay: ELISA of serum antibodies on maleimide-activated plates; format: binding; settings: Cys-conjugate on maleimide plate
Experimental: Peptides containing cysteine were bound through the cysteine sulfhydryl group to maleimide activated plates (Reacti-Bind™ Maleimide activated plates, Pierce).
One hundred microliters of the peptide solution (0.5 nmol of peptide) was added to each well and allowed to react overnight at +4° C.
The unreacted maleimide groups were blocked with 2-mercaptoethanol: 150 μl of 1 mM 2-mercaptoethanol in 10 mM sodium phosphate/0.15 M NaCl/2 mM EDTA, pH 7.2 was added to each well and allowed to react for 1 hour at RT.
The serum obtained from person nr. […] Control wells contained no peptide but both 2-mercaptoethanol and BSA blockings were employed. All incubations were performed in duplicates.

[2] = tested on: serum antibodies of test subjects (anti-human IgG detection); settings: N-terminal biotin conjugate on streptavidin plate
Experimental: Biotinylated peptides were bound to streptavidin-coated plates (Pierce).
The peptides sequences were as follows: • Biotin-aminohexanoyl-PWVRGV (custom product, CSS, Edinburgh, Scotland) • Biotin-aminohexanoyl-SYACKR (custom product, CSS, Edinburgh, Scotland) • Biotin-aminohexanoyl-SKAYSNC (custom product, CSS, Edinburgh, Scotland)
Prior to peptide immobilization, plates were blocked with 150 μl of 0.5% BSA in 10 mM sodium phosphate/0.15 M NaCl/0.05% Tween-20, pH 7.2, for 1.5 h at RT. The plate was then washed three times with 10 mM sodium phosphate/0.15 M NaCl/0.05% Tween-20, pH 7.2.
Peptides were dissolved in 10 mM sodium phosphate/0.15 M NaCl, pH 7.2, to a concentration of 0.5 nmol/ml. One hundred microliters of the peptide solutions (50 pmol of the peptide) were added to the wells and allowed to react overnight at +4° C. The plates were then washed four times with 10 mM sodium phosphate/0.15 M NaCl/0.05% Tween-20/0.2% BSA, pH 7.2 (washing buffer).
Serum was obtained from six healthy individuals (29-44 years of age), and dilutions 1:10, 1:100 and 1:1000 were prepared from all but one serum sample in the washing buffer. The serum obtained from person nr. 5 was instead diluted 1:25, 1:250 and 1:2500 in the washing buffer. One hundred microliters of each serum sample was added to the wells and incubated for 60 mins at RT. […] All incubations were performed in duplicates.
After serum incubation the plate was washed with the washing buffer 8 times with at least 5 min incubation period between change of the washing liquid.
The bound serum antibodies were quantitated by adding anti-human IgG (rabbit)—HRP conjugate (Sigma) in 1:30000 dilution to each well. After one hour incubation at RT, the plate was washed five times with the washing buffer. One hundred microliters of TMB+ color reagent (Dako Cytomation) was then added. The absorbance was read at 650 nm after 15 mins. Immediately after this measurement 100 μl of 1 M sulphuric acid was added and the absorbance read at 450 nm.

A/Taiwan/1/86 H1N1 = format: binding, human influenza virus A; design: key: “+” = binding; “−” = no binding; “(+)” = trace binding
A/Beijing/262/95 H1N1 = format: binding, human influenza virus A; design: key: “+” = binding; “−” = no binding; “(+)” = trace binding
A/New Caledonia/20/99 = format: binding, human influenza virus A; design: key: “+” = binding; “−” = no binding; “(+)” = trace binding
A/Kiev/301/94 H3N2 = format: binding, human influenza virus A; design: key: “+” = binding; “−” = no binding; “(+)” = trace binding
A/Shangdong/9/93 H3N2 = format: binding, human influenza virus A; design: key: “+” = binding; “−” = no binding; “(+)” = trace binding
A/PR/8/34 H1N1 = format: binding, human influenza virus A; design: key: “+” = binding; “−” = no binding; “(+)” = trace binding
A/X31, A/Aichi/3/75 H3N2 = format: binding, human influenza virus A; design: key: “+” = binding; “−” = no binding; “(+)” = trace binding
A/2/Japan/305/57 H2N2 = format: binding, human influenza virus A; design: key: “+” = binding; “−” = no binding; “(+)” = trace binding
[3] = tested on: human influenza virus A strains; format: binding

For “Biotin-aminohexanoyl-SKAYSNC [Peptide 1]”, the “Approximate immune reactions of sera against synthetic peptides” value (“Approximate immune reactions of sera” for short) ([1]; Serum 1) was “weakly or non-reactive”, the “Approximate immune reactions of sera” value ([1]; Serum 2) was “reacted” and the “Approximate immune reactions of sera” value ([1]; Serum 3) was “reacted”. The “Approximate immune reactions of sera” value ([1]; Serum 4) was “reacted”, the “Approximate immune reactions of sera” value ([1]; Serum 5) was “weakly or non-reactive” and the “Approximate immune reactions of sera” value ([1]; Serum 6) was “strongest”. The “Approximate immune reactions of sera” value ([2]; Serum 1, listed as Biotin-aminohexanoic-SKAYSNC) was “weakly or non-reactive”, the “Approximate immune reactions of sera” value ([2]; Serum 3, listed as Biotin-aminohexanoic-SKAYSNC) was “strongest immune response” and the “Approximate immune reactions of sera” value ([2]; Serum 4, listed as Biotin-aminohexanoic-SKAYSNC) was “strongest immune response”. For the same substance, the “Approximate immune reactions of sera” value ([2]; Serum 5, listed as Biotin-aminohexanoic-SKAYSNC) was “weakly or non-reactive” and the “Approximate immune reactions of sera” value ([2]; Serum 6, listed as Biotin-aminohexanoic-SKAYSNC) was “weakly or non-reactive”.
With Biotin-aminohexanoyl-SYACKR [Peptide 2] the “Approximate immune reactions of sera” value ([1]; Serum 5) was “weaker”, the “Approximate immune reactions of sera” value ([1]; Serum 6) was “strongest response” and the “Approximate immune reactions of sera” value ([2]; Serum 1, listed as Biotin-aminohexanoic-SYACKR) was “weakest reaction”. The “Approximate immune reactions of sera” value ([2]; Serum 2, listed as Biotin-aminohexanoic-SYACKR) was “strongest immune response” and the “Approximate immune reactions of sera” value ([2]; Serum 5, listed as Biotin-aminohexanoic-SYACKR) was “strongest immune response”.
For Globoside, the “Binding of influenza virus strain to glycolipids” value (shortened to “Binding of influenza virus strain”) (A/Taiwan/1/86 H1N1) was “−”, the “Binding of influenza virus strain” value (A/Beijing/262/95 H1N1) was “−” and the “Binding of influenza virus strain” value (A/New Caledonia/20/99) was “−”. For the same substance, the “Binding of influenza virus strain” value (A/Kiev/301/94 H3N2) was “−”, the “Binding of influenza virus strain” value (A/Shangdong/9/93 H3N2) was “−” and the “Binding of influenza virus strain” value (A/PR/8/34 H1N1) was “−”. The “Binding of influenza virus strain” value (A/X31, A/Aichi/3/75 H3N2) was “−” and the “Binding of influenza virus strain” value (A/2/Japan/305/57 H2N2) was “−”.
In the case of “Neu5Acα2-3Galβ1-4GlcNAcβ1-3(Neu5Acα2-3Galβ1-4GlcNAcβ1-6)Galβ1-4Glc [Oligosaccharide 9]”, the “activity on solid phase, in words” value [3] is reported as “active especially when presented in polyvalent form on a solid phase”.

— US20090074666A1 (priority 2005, published 2009)
